Measured values from a melting point compilation (Tetko et al.; mined from patent text by program, amines drawn as free bases though some values may be those of a salt).

Row | melting point [°C] | Compound
1 | 110 | COc1nnccc1-c1ccccc1OCC(O)CNC(C)(C)C (stereo not drawn)
2 | 130 to 133 | COc1cccc(Sc2c3c(=O)n(C)c(=O)n(CC(C)C)c3cn2Cc2cccc3ccccc23)c1
3 | 216 to 218 | CCOC(=O)c1cnc2c3cc(NC(=O)C(C)C(C)CC)ccc3c(C)cn2c1=O (stereo not drawn)
4 | 113 to 114 | O=S(=O)(c1ccc(Cl)cc1)C(c1ccc(CN2CCCCC2)cn1)c1cc(F)ccc1F (stereo not drawn)
5 | 65 | CC(=O)OC1CSC(Oc2cccc(-c3nccs3)c2)C(OC(C)=O)C1OC(C)=O (stereo not drawn)
6 | 103 to 104 | CC(=O)c1ccc2c(c1)Cc1ccccc1O2
7 | 244 to 246 | COc1ccc(C(=O)Cc2c(Cl)cncc2Cl)c2c(CC(=O)NCc3ccccc3)coc12
8 | 175 to 179 | COc1ccc2c(-c3c(F)cccc3F)noc2c1Cl
9 | 189 to 192 | COc1ccc(Cn2cc3nc(Nc4ccc(C(F)(F)F)cc4Cl)nc(OCc4ccccc4)c3n2)cc1
10 | 188 to 191 | CC(C)(c1ccccc1)c1cccc(S(=O)(=O)NC(CCCNC(=N)N)C(=O)N2CCC(CC(=O)O)CC2)c1 (stereo not drawn)
11 | 221 to 222 | Fc1ccc2c(CCCC3CNCc4c3[nH]c3cnc5cc(Cl)ccc5c43)noc2c1 (stereo not drawn)
12 | 62 to 63 | COC(=O)C#CC(=O)c1ccc(F)cc1
13 | 142 to 143 | CC(=O)NC(=O)N1CCSC1c1ccccc1OCCN1CCN(c2cccc(F)c2)CC1 (stereo not drawn)
14 | 155 to 157 | O=C1c2cccc(-c3ccccc3)c2C2NCCN12 (stereo not drawn)
15 | 174 to 176 | COC1(c2cccc(S(=O)(=O)c3ccc4c(c3)sc(=O)n4C)c2)CCOCC1
16 | 170 to 171 | O=C(O)c1sc(Cl)nc1-c1ccccc1
17 | 230 to 232 | COc1ccc(S(=O)(=O)c2cc(O)c(O)cc2C)cc1NC(C)=O
18 | 218 to 219 | Cc1c(N2C[C@@H](NC(=O)OC(C)(C)C)C3(CC3)C2)c(F)c(N)c2c(=O)c(C(=O)O)cn(C3CC3)c12
19 | 178 | COc1ccc(C(=O)NNc2ccc(NC(=S)Nc3ccccc3)cc2)cc1
20 | 180 | COC(=O)C1CCN(S(=O)(=O)c2ccc(Cl)c(COc3cccc4c(-n5ccnc5)cc(C)nc34)c2Cl)C1 (stereo not drawn)
21 | 99 to 100 | N#CCCCSc1nccc(N)n1
22 | 160 | Cn1ccc2c(NC(=O)c3ccccc3)cccc21
23 | 204 to 210 | O=C(O)c1cc2c(C(F)(F)F)c(F)ccc2[nH]1
24 | 110 to 111 | CCCc1c(O)c(C(C)=O)cc2ccc(C(=O)OC)nc12

Row | melting point [°C] | Compound
25 | 157 to 163 | OCCCC(=C(c1ccccc1)c1ccc(O)cc1)c1ccccc1
26 | 88 to 90 | O=C(C(=O)N1CCCCC1)N1CCCCC1
27 | 74 to 76 | O=C(Cc1ccc(Cl)cc1)c1ccc(OC(F)F)cc1
28 | 181 to 183 | C=C(c1ccc(Cl)cc1)c1ccc(NC(=O)c2cc(Br)cc(Br)c2O)cc1
29 | 64 to 65 | CC(C)OC(=O)OCC1(C)COC(=O)OC1
30 | 136 to 138 | NCCCCCCOc1ccccc1C(=O)Nc1ccc(C(=O)N2CCCCc3ccccc32)cc1
31 | 53 to 54 | COc1c(C)c(C)c(OC)c(Cc2ccccc2)c1C
32 | 109 to 110 | CC(C)Cc1nc(-c2ccccc2)cnc1NN
33 | 125 to 126 | CC(=O)N1Cc2cccc3c2c(cn3C)C1
34 | 173 to 174 | Cc1sc(-c2ccccc2)nc1COc1ccc(COc2ccccc2CC(=O)O)cn1
35 | 104 to 106 | C#Cc1ccc(C(=O)NC(C#N)OCC)cc1 (stereo not drawn)
36 | 27 to 30 | CCCCCCCNc1cccc(O)c1
37 | 182 | Nc1cc(=O)n(Cc2ccc(Br)c(Br)c2)[nH]1
38 | 80 to 82 | N#Cc1ccc(-c2csc(NCCO)n2)cc1
39 | 98 to 99 | COCC1CN(c2ccc3ccc(N)cc3c2)C(=O)O1 (stereo not drawn)
40 | 146 to 147 | O=c1cc(CO)n(Cc2ccccc2)cc1OCc1ccccc1
41 | 243 to 245 | Cc1nc(N=Nc2ccccc2)c(O)c(=O)[nH]1
42 | 153 to 155 | CC(C)CC(SCc1ccccc1)c1c(O)cc(-c2ccccc2)oc1=O (stereo not drawn)
43 | 123 to 127 | CC(=O)C(=Cc1ccc(O)cc1)C(C)=O
44 | 158 to 161 | CN(C)C1CCC(Nc2nc3cc4c(cc3nc2-c2ccccn2)CCC4)CC1 (stereo not drawn)
45 | 175 to 176 | O=C(OCCc1ccccc1)c1ccc2cc(O)c(O)cc2c1
46 | 127 to 128 | CCCCc1nc(C(O)C(C)C)c(C#N)n1Cc1ccc(-c2ccccc2-c2nnnn2C(c2ccccc2)(c2ccccc2)c2ccccc2)cc1 (stereo not drawn)
47 | 152 to 153 | Cc1ccc2occ(CC3=NOS(=O)N3)c2c1 (stereo not drawn)
48 | 132 to 134 | O=Cc1c(-c2ccc(F)cc2)n(CCF)c(=O)c2ccccc12

Row | melting point [°C] | Compound
49 | 173 to 174 | COc1ccc(OC)c2c1C[C@](O)(CC#N)CC21SCCS1
50 | 109 to 111 | C=CCc1c(O)c(Cl)cc(F)c1N1C(=O)C2=C(CCCC2)C1=O
51 | 275 to 276 | Cn1cnc(COc2nn3c(-c4cc(CO)on4)nnc3c3ccccc23)n1
52 | 52 to 54 | OC1CCN(Cc2ccc(Br)cn2)CC1
53 | 114 to 115 | CCN(CC)C(Cc1cccs1)=Nc1ccc2sc3ccccc3c2c1
54 | 109 to 112 | CC#CC(C)(C)NC(=O)C(CC)Oc1ccc2ncc(Br)cc2c1 (stereo not drawn)
55 | 162 to 163 | CCc1nnc(-c2ccc(-c3ccccc3)nc2)n1-c1cccc(C(N)=O)c1C
56 | 255 to 256 | O=C1Nc2cc(Cl)ccc2Nc2ccsc21
57 | 115 to 116 | COc1cc2c(cc1O)C(=O)CCCC2
58 | 111 to 112 | COc1ccc(C2(C#N)CCC(=O)CC2)cc1OC
59 | 149 to 151 | CC(=O)c1sc(N2CCN(Cc3cccc(C(F)(F)F)c3)C2=O)nc1C
60 | 127 to 128 | N=C(Nc1ccc(CN(Cc2ccccc2)Cc2ccccc2)cc1)c1cccs1
61 | 118 to 121 | CNc1nc2ccc(Cc3ccccn3)cc2s1
62 | 233 to 235 | O=C(Nc1ccc(Cl)cc1)c1ccc([N+](=O)[O-])cc1
63 | 122 to 125 | CCCCC(=O)N(Cc1ccc(OC)cc1)c1cc(F)cc(-c2nnn[nH]2)c1
64 | 209 | Nc1ccc(OS(=O)(=O)c2ccc(-n3ccnc3)cc2)cc1[N+](=O)[O-]
65 | > 300 | O=C(O)c1ccc(CC2(Cc3ccc(C(=O)O)cc3)C(=O)N=C3C=CC=CN32)cc1
66 | 190 to 193 | O=C(Nc1nccc2ccc(CO)cc12)c1ccccc1
67 | 193 to 196 | OC(Cn1cncn1)(Cn1ncnc1C=Cc1ccc(Cl)cc1)c1ccc(Cl)cc1Cl (stereo not drawn)
68 | 102 to 103 | O=C(CCC(=O)N1CCC(c2ccc(Cl)cc2)CC1)c1ccc2c(c1)CN(Cc1ccccc1)CC2
69 | 209 to 213 | CCNC(=O)CCCC1CCN(Cc2cnc3cc(NC(=O)c4ccc(-c5ccc(F)cc5)cc4)ccc3c2)CC1
70 | 190 to 192 | N#Cc1c(Cl)nc2ccc([N+](=O)[O-])cc2c1Cl

Row | Compound | melting point [°C]
71 | O=C1C2CC3CCC(C2)N3C1C(c1ccccc1)c1ccccc1 (stereo not drawn) | 137 to 138
72 | CCCCCCCCCCCCCCCCOC(=O)Cl | > 230
73 | Cc1ccc2nc(NC3=NCCN3)[nH]c2c1 | 264 to 266
